Reference: patent US20250052985A1, “SYSTEM AND METHOD FOR QUANTITATIVE PHASE IMAGING FOR MULTI-PARAMETRIC SCREENING OF TUMOR THERAPY RESPONSE” (UNIVERSITY OF UTAH RESEARCH FOUNDATION, priority 2023, published 2025)
“And” between values parts separate entries of the source, which are not always exact repeats. Identical values can stand only once. Like-named read-outs stand apart in the source and are kept apart here.

Experiments:
MCF-7 cells [1] = assay: CellTiter-Glo (CTG) ATP viability assay, MCF-7; assay type: cell-based; conditions: for Min Asymptote: MCF-7, Hill fit of luminescence normalized to solvent control, one line per replicate; for EC50: Homo sapiens; for DoR CTG: MCF-7 cell line, depth of response
Summary of the method: (§1)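 Cell viability was read as ATP content by CellTiter-Glo luminescence after replacing media with reagent, shaking 20 min and resting 10 min. Signal was normalized to solvent control, and a 4-parameter Hill fit to the dose response gave EC50 and depth of response.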

MCF-7 cells [2] = assay: cells; conditions: for Max Asymptote / Min Asymptote: MCF-7, 4-parameter Hill fit of mean SGR vs concentration, one line per replicate; for Hill Slope: MCF-7, Hill fit; for EC50: Homo sapiens; for DoR QPI / ToR 20 μM: MCF-7 cell line; for DoR QPI: depth of response; for ToR 20 μM: time of response at 20 μM
Summary of the method: (§2)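 EC50 comes from 4-parameter Hill fits of average specific growth rate (mass accumulation) versus dose; a response is called only when the fit beats a flat line by F-test at p<0.01. Growth was tracked by differential phase contrast QPI for 24 or 72 h post-equilibration, followed by CTG ATP readout.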

BT-474 cells [3] = assay: cells; conditions: for Max Asymptote / Min Asymptote: BT-474, 4-parameter Hill fit of mean SGR vs concentration, one line per replicate; for Hill Slope / log10(EC50): BT-474, Hill fit; for DoR QPI / ToR 20 μM: BT-474 cell line; for DoR QPI: depth of response; for ToR 20 μM: time of response at 20 μM; for EC50: Homo sapiens
Summary of the method: as §2

MDA-MB-231 cells = assay: Quantitative phase imaging (QPI) growth response, MDA-MB-231; assay type: cell-based; parameters: DoR QPI: scale not given here; ToR 20 μM: unit not given here; conditions: for Max Asymptote / Min Asymptote: MDA-MB-231, 4-parameter Hill fit of mean SGR vs concentration, one line per replicate; for EC50: Homo sapiens; for DoR QPI / ToR 20 μM: MDA-MB-231 cell line; for DoR QPI: depth of response; for ToR 20 μM: time of response at 20 μM
Summary of the method: as §2

BT-474 cells [4] = assay: CellTiter-Glo (CTG) ATP viability assay, BT-474; assay type: cell-based; conditions: for Min Asymptote: BT-474, Hill fit of luminescence normalized to solvent control, one line per replicate; for DoR CTG: BT-474 cell line, depth of response; for EC50: Homo sapiens
Summary of the method: as §1

[5] = BT-474, 24 h, read-out: log10(EC50), 24 h QPI, BT-474, Hill fit (converted), EC50 in μM per Table 1
[6] = BT-474, read-out: EC50, QPI, BT-474 cell line, QPI growth rate

Row | Compound | Min Asymptote (MCF-7 cells [1]; 72 h CTG) | DoR CTG (MCF-7 cells [1]; CellTiter-Glo) | Max Asymptote (MCF-7 cells [2]; 24 h QPI) | Min Asymptote (MCF-7 cells [2]; 24 h QPI) | Hill Slope (MCF-7 cells [2]; 24 h QPI) | Max Asymptote (MCF-7 cells [2]; 72 h QPI) | Min Asymptote (MCF-7 cells [2]; 72 h QPI) | DoR QPI (MCF-7 cells [2]) | ToR 20 μM (MCF-7 cells [2]) | Max Asymptote (BT-474 cells [3]; 24 h QPI) | Min Asymptote (BT-474 cells [3]; 24 h QPI) | Hill Slope (BT-474 cells [3]; 24 h QPI) | Max Asymptote (BT-474 cells [3]; 72 h QPI) | Min Asymptote (BT-474 cells [3]; 72 h QPI) | DoR QPI (BT-474 cells [3]) | ToR 20 μM (BT-474 cells [3]) | EC50 (BT-474 cells [3]; [5]) [µM] | EC50 (BT-474 cells [3]; [6]) [µM] | Max Asymptote (MDA-MB-231 cells; 24 h QPI) | Min Asymptote (MDA-MB-231 cells; 24 h QPI) | further results
1 | C[C@]12CC[C@@H]3c4ccc(O)cc4C[C@@H](CCCCCCCCC[S+]([O-])CCCC(F)(F)C(F)(F)F)[C@H]3[C@@H]1CC[C@@H]2O (stereo partly drawn) [Fulvestrant] | 0.76 and 0.7073 and 0.6956 | 0.3 | 0.04169 | 0.02021 | 0.4537 | 0.01656 and 0.01573 | 0.02377 and 0.02811 | 0.4 | 23.2 | 0.01059 | 0.007383 | 0.5448 | 0.006153 and 0.002199 and 0.003561 | 0.009854 and 0.008492 and 0.009456 | 0.6 | 28.9 | 13.7 | 11.6 | 0.02847 | 0.02401 | Min Asymptote (MCF-7 cells [1]; 24 h CTG): 0.5189 and 0.9446; EC50 (MCF-7 cells [1]; MCF7, MCF-7 cell line, CellTiter-Glo, read-out: EC50, CTG (converted)): 0.5 µM; Hill Slope (MCF-7 cells [2]; 72 h QPI): 0.5562 and 0.7449; EC50 (MCF-7 cells [2]; MCF7, 24 h, read-out: log10(EC50), 24 h QPI, MCF-7, Hill fit (converted), EC50 in μM per Table 1): 0.000875 µM; EC50 (MCF-7 cells [2]; MCF7, read-out: EC50, QPI, MCF-7 cell line, QPI growth rate): 0.2 µM; cluster mass over time (MCF-7 cells [2]; small cluster of MCF-7 cells, 20 μM, 10 h to 72 h): grow slowly at the beginning and end the experiment with a lower mass than they started with; EC50 (BT-474 cells [3]; BT-474, read-out: EC50, SD, BT-474 cell line, EC50 of the standard deviation): 8.17 µM; Hill Slope (MDA-MB-231 cells; 24 h QPI, MDA-MB-231, Hill fit): 2.2482; Max Asymptote (MDA-MB-231 cells; 72 h QPI): 0.01423 and 0.00907; Min Asymptote (MDA-MB-231 cells; 72 h QPI): 0.02796 and 0.03032; Hill Slope (MDA-MB-231 cells; 72 h QPI, MDA-MB-231, Hill fit): 1.492 and 0.9134; EC50 (MDA-MB-231 cells; MDA-MB-231, 24 h, 24 h QPI, MDA-MB-231, Hill fit, EC50 in μM per Table 1, read-out: log10(EC50) (converted)): 3.43 µM; EC50 (MDA-MB-231 cells; MDA-MB-231, MDA-MB-231 cell line, EC50 of the standard deviation, read-out: EC50, SD (converted)): 3.32 µM; EC50 (MDA-MB-231 cells; MDA-MB-231, MDA-MB-231 cell line, QPI growth rate, read-out: EC50, QPI): 11.4 µM; DoR QPI (MDA-MB-231 cells): 0.6; ToR 20 μM (MDA-MB-231 cells): 14.4; Min Asymptote (BT-474 cells [4]; 72 h CTG): 0.1608 (2×) and 0.8009; DoR CTG (BT-474 cells [4]; CellTiter-Glo): 0.6; EC50 (BT-474 cells [4]; BT-474, BT-474 cell line, CellTiter-Glo, read-out: EC50, CTG): 1340 µM
2 | CC(=O)c1c(C)c2cnc(Nc3ccc(N4CCNCC4)cn3)nc2n(C2CCCC2)c1=O [Palbociclib] | 0.1244 (2×) and 0.221 | 1.0 | 0.02169 | 0.01657 and 0.02043 | 1.6152 and 1.0687 | 0.009479 and 0.01292 | 0.01776 and 0.02128 | 1.0 | 4.4 | 0.01082 and 0.008556 and 0.008815 | −0.01762 and −0.0277 and −0.01394 | 2.2846 and 1.7745 and 2.7163 | −0.01228 and −0.0216 and −0.01047 | 0.008887 and 0.008838 and 0.006465 | 1.6 | −3.0 | 13.9 | 11.8 | 0.03459 and 0.03302 and 0.02322 | 0.004781 and −0.01622 and 0.01166 | Hill Slope (MCF-7 cells [1]; 72 h CTG, MCF-7, Hill fit): 0.7617 and 0.9004; log10(EC50) (MCF-7 cells [1]; 72 h CTG, MCF-7, Hill fit): −0.1876; EC50 (MCF-7 cells [1]; MCF7, 72 h, 72 h CTG, MCF-7, Hill fit, read-out: log10(EC50) (converted)): 1.62 µM; log10(EC50) (BT-474 cells [3]; 24 h QPI, EC50 in μM per Table 1): −1.2331 and −1.2554; log10(EC50) (BT-474 cells [3]; 72 h QPI, EC50 in μM per Table 1): −1.2071 and −1.2126; EC50 (BT-474 cells [3]; BT-474, 72 h, read-out: log10(EC50), 72 h QPI, BT-474, Hill fit (converted), EC50 in μM per Table 1): 12.3 µM; Max Asymptote (MDA-MB-231 cells; 72 h QPI): −2.92E−05 and 0.006396 and 0.007784; Min Asymptote (MDA-MB-231 cells; 72 h QPI): 0.03469 and 0.03153 and 0.02663; DoR QPI (MDA-MB-231 cells): 0.6; ToR 20 μM (MDA-MB-231 cells): 1.6; Hill Slope (BT-474 cells [4]; 24 h CTG, BT-474, Hill fit): 6.945; Min Asymptote (BT-474 cells [4]; 24 h CTG): 0.2202; Hill Slope (BT-474 cells [4]; 72 h CTG, BT-474, Hill fit): 5.467 and 7.802; Min Asymptote (BT-474 cells [4]; 72 h CTG): 0.01628 and 0.01895; DoR CTG (BT-474 cells [4]; CellTiter-Glo): 0.9; EC50 (BT-474 cells [4]; BT-474, 24 h, 24 h CTG, BT-474, Hill fit, read-out: log10(EC50) (converted)): 14.2 µM
